Reference: ChEMBL document CHEMBL1201862, “PubChem BioAssay data set” (2004)
Activity calls are given as the source filed them.

Legend:
[1] = target: Ion channel NompC (Danio rerio, UniProt Q7T1G6); assay: Fluorescence counterscreen assay for TRPML3 agonists: dose response cell-based high-throughput screening assay to identify agonists of the transient receptor potential channel N1 (TRPN1). [Related pubchem assays: 1526, 1424, 1448 ]; format: functional
[2] = target: T1, Mucolipin-3 (Homo sapiens, UniProt Q8TDD5); assay: Dose response cell-based high-throughput screening assay for agonists of the transient receptor potential channel ML3 (TRPML3). [Related pubchem assays: 1526, 1424, 1448 ]; format: functional
T1 sequence (Q8TDD5 whole entry): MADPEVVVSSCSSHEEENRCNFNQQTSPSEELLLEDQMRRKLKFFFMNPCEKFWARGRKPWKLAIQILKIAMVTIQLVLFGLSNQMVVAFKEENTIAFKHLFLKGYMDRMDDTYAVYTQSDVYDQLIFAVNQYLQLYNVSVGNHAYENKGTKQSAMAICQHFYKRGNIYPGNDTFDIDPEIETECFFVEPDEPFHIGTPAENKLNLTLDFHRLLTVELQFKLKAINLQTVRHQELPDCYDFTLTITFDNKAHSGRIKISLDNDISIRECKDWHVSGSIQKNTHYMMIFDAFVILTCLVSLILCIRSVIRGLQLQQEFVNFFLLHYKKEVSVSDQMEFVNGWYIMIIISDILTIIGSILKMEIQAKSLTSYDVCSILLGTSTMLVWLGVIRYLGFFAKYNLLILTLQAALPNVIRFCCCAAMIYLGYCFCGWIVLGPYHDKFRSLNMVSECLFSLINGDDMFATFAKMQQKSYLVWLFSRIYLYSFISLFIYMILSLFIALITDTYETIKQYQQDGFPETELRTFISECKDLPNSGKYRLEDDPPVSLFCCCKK

[3] = target: T2, Nucleotide-binding oligomerization domain-containing protein 1 (Homo sapiens, UniProt Q9Y239); assay: NOD1 signaling inhibitors, SAR follow-up, revised (AID 2333); format: functional
T2 sequence (Q9Y239 whole entry): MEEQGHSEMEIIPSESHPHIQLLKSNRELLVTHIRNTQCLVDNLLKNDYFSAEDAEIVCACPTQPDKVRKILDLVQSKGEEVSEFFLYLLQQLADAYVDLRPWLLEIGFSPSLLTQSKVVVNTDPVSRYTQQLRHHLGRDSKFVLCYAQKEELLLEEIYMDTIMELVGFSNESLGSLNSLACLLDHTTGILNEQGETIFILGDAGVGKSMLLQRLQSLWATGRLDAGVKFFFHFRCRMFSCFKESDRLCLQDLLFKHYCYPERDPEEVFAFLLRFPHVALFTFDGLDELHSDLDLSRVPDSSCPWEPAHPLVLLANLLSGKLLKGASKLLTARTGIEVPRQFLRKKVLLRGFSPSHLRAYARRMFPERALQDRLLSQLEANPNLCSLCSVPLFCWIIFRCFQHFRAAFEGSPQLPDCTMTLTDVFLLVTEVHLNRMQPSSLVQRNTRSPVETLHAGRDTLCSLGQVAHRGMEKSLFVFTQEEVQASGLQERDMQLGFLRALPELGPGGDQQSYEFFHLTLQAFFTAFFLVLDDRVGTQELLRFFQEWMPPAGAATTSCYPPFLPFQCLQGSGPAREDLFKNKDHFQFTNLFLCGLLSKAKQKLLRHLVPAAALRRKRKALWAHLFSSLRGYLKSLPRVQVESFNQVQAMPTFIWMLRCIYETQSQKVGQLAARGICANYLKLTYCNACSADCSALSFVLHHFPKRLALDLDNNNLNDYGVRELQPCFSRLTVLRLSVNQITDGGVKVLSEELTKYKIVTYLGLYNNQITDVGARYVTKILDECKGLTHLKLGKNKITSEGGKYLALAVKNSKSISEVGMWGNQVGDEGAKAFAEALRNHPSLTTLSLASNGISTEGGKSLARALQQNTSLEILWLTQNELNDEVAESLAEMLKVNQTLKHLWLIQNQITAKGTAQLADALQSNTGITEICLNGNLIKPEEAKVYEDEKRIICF

[4] = tested on: HEK293; assay: NOD1 signaling inhibitors, primary screen, cell-based, luminescence, uHTS (AID 1578); format: functional; conditions: Homo sapiens
[5] = tested on: HEK293; assay: cells; format: functional, cell-based; conditions: Homo sapiens
[6] = target: Tumor necrosis factor (Homo sapiens, UniProt P01375); assay: TNFa-triggered NF-kB activation inhibitors, SAR follow-up, cell-based, revised (AID 2337); format: functional
Chain of Tumor necrosis factor (P01375 whole entry): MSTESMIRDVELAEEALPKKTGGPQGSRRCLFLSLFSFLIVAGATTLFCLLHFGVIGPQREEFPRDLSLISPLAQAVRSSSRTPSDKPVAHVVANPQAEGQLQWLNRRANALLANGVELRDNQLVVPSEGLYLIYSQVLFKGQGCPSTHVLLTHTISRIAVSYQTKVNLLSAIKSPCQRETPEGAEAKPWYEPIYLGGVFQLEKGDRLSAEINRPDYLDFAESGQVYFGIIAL

[7] = tested on: HEK293; assay: NOD2 signaling inhibitors in MDP-stimulated cells, cell-based, uHTS, luminescence (AID 2001); format: functional; conditions: Homo sapiens
[8] = tested on: HEK293; assay: cells; conditions: Homo sapiens
[9] = tested on: HEK293; assay: cells; format: functional, cell-based; conditions: Homo sapiens; remark: listed apart in the source
[10] = target: Peroxisome proliferator-activated receptor gamma/Nuclear receptor coactivator 2 (Homo sapiens, UniProt P37231); format: functional;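 note: agonist potency for raising coactivator recruitment to the receptor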
[11] = target: Peroxisome proliferator-activated receptor gamma/Nuclear receptor coactivator 1 (Homo sapiens, UniProt P37231); format: functional;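 note: agonist potency as compounds enhance coactivator SRC-1 recruitment to PPARgamma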
Chain of Peroxisome proliferator-activated receptor gamma/Nuclear receptor coactivator 1 (P37231 whole entry): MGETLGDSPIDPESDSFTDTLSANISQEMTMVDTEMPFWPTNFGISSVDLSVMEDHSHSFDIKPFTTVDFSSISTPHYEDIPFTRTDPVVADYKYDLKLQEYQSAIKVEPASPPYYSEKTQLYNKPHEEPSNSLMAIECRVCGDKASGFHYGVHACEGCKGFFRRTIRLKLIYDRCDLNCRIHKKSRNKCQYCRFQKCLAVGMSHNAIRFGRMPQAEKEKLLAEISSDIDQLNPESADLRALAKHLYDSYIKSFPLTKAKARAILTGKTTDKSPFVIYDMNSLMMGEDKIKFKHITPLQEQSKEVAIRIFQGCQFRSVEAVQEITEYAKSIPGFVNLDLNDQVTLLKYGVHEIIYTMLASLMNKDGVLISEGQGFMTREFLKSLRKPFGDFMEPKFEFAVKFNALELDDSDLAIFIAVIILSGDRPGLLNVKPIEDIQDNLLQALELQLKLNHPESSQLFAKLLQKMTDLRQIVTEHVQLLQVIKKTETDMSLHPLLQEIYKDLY
Chain of Peroxisome proliferator-activated receptor gamma/Nuclear receptor coactivator 1 (Q15788 whole entry, further chain): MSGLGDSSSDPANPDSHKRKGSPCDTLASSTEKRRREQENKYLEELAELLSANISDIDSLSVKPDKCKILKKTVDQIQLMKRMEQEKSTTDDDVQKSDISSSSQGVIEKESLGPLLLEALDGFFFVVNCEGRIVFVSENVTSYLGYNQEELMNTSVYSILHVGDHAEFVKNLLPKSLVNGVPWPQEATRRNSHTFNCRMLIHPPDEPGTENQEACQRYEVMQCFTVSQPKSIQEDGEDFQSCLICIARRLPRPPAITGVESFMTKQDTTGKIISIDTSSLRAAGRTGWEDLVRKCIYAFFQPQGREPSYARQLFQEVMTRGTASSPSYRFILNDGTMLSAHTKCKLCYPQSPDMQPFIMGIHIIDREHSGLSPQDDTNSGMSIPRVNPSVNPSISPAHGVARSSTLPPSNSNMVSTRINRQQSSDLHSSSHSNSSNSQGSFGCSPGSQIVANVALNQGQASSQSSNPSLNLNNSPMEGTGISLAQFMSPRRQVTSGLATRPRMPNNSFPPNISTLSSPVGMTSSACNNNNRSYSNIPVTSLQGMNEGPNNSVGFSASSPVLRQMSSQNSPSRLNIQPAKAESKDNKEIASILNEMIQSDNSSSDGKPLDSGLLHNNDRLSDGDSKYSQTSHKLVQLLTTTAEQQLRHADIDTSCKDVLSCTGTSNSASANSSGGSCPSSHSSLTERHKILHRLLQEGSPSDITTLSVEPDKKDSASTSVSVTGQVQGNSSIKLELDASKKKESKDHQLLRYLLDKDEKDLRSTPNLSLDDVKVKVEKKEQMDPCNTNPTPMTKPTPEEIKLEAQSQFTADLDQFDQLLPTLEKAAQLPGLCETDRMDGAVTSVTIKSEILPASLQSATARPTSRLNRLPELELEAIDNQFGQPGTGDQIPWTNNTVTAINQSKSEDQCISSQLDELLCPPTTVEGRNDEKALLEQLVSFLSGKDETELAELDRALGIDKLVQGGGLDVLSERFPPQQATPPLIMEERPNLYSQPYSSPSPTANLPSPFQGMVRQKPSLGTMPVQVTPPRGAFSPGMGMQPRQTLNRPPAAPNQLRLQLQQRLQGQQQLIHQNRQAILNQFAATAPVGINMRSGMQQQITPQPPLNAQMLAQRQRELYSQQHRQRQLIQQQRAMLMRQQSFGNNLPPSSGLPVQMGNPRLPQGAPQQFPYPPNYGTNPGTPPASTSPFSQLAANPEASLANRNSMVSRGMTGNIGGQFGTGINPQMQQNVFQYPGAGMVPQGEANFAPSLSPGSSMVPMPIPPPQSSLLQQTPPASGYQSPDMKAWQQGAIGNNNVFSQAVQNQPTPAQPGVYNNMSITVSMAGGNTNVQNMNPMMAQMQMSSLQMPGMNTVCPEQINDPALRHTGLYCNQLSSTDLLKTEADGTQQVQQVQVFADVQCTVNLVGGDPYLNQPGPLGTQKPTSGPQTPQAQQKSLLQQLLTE

[12] = target: Peroxisome proliferator-activated receptor gamma/Nuclear receptor coactivator 3 (Homo sapiens, UniProt P37231); format: functional;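 note: agonist potency for raising coactivator recruitment to the receptor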
[13] = target: DNA dC->dU-editing enzyme APOBEC-3G (Homo sapiens, UniProt Q9HC16); format: functional;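 note: Dose-response counterscreen measuring inhibition of APOBEC3G DNA deaminase activity, run while confirming APOBEC3A inhibitors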
Chain of DNA dC->dU-editing enzyme APOBEC-3G (Q9HC16 whole entry): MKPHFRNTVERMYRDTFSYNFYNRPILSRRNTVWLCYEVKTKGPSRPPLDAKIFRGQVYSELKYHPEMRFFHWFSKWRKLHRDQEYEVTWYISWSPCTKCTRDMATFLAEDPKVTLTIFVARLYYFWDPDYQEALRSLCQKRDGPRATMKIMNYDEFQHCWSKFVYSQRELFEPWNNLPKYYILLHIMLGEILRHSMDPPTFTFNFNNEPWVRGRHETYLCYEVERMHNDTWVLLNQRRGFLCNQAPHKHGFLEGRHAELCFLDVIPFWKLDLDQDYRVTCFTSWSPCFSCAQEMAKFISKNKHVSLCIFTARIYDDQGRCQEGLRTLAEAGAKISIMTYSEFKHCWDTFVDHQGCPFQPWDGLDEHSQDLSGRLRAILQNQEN

[14] = target: DNA dC->dU-editing enzyme APOBEC-3A (Homo sapiens, UniProt P31941); assay: Dose Response confirmation of small molecule APOBEC3A DNA Deaminase Inhibitors via a fluorescence-based single-stranded DNA deaminase assay. [Related pubchem assays (depositor defined):AID493011, AID493024]; format: functional
Chain of DNA dC->dU-editing enzyme APOBEC-3A (P31941 whole entry): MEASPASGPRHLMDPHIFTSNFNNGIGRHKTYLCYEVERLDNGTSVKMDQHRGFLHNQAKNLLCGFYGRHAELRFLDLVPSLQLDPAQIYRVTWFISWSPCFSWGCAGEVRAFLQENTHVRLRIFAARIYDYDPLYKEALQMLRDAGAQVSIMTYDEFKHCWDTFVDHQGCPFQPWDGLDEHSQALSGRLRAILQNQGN

[15] = NIH-3T3 fibroblast cytotoxicity, dose response, cytotoxicity control, cell-based, fluorescence, Alamar Blue, secondary assay (AID 2327); format: functional;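 note: NIH-3T3 mouse fibroblasts cultured with fluconazole at 8 µg/mL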
[16] = inhibitors of SNCA 5'UTR-driven reporter translation, confirmation, H4 neuroglioma cells, luminescence (AID 1988); format: functional, cell-based
[17] = Luminescence Cell-Based Dose Response HTS to Identify Inhibitors of 5'UTR Stem-Loop Driven Prion Protein mRNA Translation in H4 Neuroglioblastoma Cells. [Related pubchem assays: 1827 (Project Summary), 1813 (Primary HTS)]; format: functional
[18] = C. albicans growth with fluconazole, confirmation, fluorescence, retest (AID 2467); format: functional, cell-based
[19] = inhibitors of firefly luciferase expression or activity, dose response, H4 neuroglioma cells, luminescence (AID 1990); format: functional, cell-based
[20] = target: Cytochrome P450 3A4 (Homo sapiens, UniProt P08684); conditions: Potency;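 note: confirmatory qHTS run detecting inhibitors and substrates of CYP3A4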
Chain of Cytochrome P450 3A4 (P08684 whole entry): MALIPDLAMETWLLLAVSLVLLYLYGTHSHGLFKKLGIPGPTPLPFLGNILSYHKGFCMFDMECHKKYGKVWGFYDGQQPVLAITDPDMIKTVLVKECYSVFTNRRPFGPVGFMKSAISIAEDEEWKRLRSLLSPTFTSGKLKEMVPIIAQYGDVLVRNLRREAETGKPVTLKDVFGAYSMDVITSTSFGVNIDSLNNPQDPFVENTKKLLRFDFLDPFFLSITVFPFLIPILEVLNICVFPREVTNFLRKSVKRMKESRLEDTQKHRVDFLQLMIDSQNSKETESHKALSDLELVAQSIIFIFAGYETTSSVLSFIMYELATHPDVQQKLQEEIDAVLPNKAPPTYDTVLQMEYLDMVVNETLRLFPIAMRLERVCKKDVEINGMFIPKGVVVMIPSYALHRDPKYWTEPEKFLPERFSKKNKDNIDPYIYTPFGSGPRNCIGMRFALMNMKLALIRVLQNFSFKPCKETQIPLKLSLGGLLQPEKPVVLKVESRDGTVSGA

[21] = HepG2 cell cytotoxicity, dose response, cytotoxicity control for Shn3 inhibitor project, CellTiter-Glo, cherry-picked (AID 624134); format: functional, cell-based
[22] = Shn3 3'UTR reporter inhibitors, dose response, cell-based, Clone20 osteoblasts, firefly luciferase, cherry-picked (AID 624132); format: functional;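 note: firefly luciferase luminescence from reporter carrying the Shn3 3'UTR in osteoblasts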
[23] = control 3'UTR Renilla luciferase suppression, dose response, counter-screen for Shn3 inhibitor project, cell-based, Clone20-Shn3RL, cherry-picked (AID 624133); format: functional

Chain of Ion channel NompC (Q7T1G6 whole entry): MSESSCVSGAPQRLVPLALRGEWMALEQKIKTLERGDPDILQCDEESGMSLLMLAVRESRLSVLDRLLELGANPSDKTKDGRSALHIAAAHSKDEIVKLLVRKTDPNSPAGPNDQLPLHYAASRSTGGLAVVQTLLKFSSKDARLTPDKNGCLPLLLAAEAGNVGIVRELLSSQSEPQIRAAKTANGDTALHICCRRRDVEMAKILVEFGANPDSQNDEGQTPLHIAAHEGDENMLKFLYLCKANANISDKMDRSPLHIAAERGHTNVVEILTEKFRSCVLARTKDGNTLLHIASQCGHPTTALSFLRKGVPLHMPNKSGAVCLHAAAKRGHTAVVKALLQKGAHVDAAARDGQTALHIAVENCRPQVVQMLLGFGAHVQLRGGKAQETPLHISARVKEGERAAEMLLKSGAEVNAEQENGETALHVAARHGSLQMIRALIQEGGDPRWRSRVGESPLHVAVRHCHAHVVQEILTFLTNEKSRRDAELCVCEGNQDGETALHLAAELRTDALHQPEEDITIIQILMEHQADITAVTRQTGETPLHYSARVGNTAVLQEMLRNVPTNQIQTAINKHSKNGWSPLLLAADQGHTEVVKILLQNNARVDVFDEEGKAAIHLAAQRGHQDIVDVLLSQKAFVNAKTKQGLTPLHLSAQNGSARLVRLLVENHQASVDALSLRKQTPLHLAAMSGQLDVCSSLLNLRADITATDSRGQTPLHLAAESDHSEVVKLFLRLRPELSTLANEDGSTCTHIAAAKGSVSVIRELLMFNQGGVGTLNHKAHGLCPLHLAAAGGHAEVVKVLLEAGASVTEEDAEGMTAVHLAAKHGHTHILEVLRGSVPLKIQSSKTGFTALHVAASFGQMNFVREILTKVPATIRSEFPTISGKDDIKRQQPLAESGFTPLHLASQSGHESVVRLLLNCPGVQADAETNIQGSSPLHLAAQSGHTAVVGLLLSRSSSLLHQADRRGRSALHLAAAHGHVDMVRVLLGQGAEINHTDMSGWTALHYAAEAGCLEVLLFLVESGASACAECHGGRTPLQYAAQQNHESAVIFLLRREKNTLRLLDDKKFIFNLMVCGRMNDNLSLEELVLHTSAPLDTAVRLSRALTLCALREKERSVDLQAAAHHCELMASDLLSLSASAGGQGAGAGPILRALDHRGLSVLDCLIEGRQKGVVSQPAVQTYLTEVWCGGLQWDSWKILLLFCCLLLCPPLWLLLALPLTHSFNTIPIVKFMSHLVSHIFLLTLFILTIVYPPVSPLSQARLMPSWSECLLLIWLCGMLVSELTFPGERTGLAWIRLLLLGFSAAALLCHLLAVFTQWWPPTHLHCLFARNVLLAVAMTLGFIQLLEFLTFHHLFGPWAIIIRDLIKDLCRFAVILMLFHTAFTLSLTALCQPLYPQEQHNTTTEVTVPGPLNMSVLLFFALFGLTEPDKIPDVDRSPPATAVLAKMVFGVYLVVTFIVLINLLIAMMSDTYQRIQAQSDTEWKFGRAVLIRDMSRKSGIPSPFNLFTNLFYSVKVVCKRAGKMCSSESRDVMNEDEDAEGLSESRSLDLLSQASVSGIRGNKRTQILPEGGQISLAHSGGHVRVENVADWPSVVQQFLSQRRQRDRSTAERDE

For CCOC(=O)C1=C(NC(=S)NC(=O)c2ccccc2)c2ccccc2CC1(C)C, the EC50 [1] was > 29.9 µM (not active) and the EC50 [2] was 5.5 µM (active).

With Cc1nc(CN(C)C(=O)c2cc(COc3ccc4ncccc4c3)on2)cs1 the IC50 [3] was > 20 µM (inactive), the EC50 [4] was 2.75 µM (active) and the IC50 [5] was 7.67 µM (active). The IC50 [6] was > 20 µM (inactive), the IC50 [7] was 14.3 µM (inactive) and the IC50 [8] was > 20 µM (inactive). For the same compound, the IC50 [9] was > 20 µM (inactive).

For CSCCNC(C)=O, the EC50 [10] was > 79.4 µM (not active), the EC50 [11] was > 79.4 µM (not active) and the EC50 [12] was > 79.4 µM (not active).

With CN(Cc1ccc(F)cc1)S(=O)(=O)c1nnc(NC(=O)c2ccccc2)s1 the IC50 [3] was 11.1 µM (active), the EC50 [4] was 3.08 µM (active) and the IC50 [5] was > 20 µM (inactive). For the same compound, the IC50 [6] was 15.1 µM (active), the IC50 [7] was 16.7 µM (inactive) and the IC50 [8] was > 20 µM (inactive). The IC50 [9] was > 20 µM (inactive).

In the case of Cc1ccc(S(=O)(=O)N2CCN(C)CC2)c(C)c1N(C)S(=O)(=O)c1ccc(Cl)cc1, the EC50 [1] is reported as > 29.9 µM (not active) and the EC50 [2] is reported as 3.34 µM (active).

In the case of CN1CCN(CC(=O)Nc2sc3c(c2C(=O)Nc2ccccc2)CCCC3)CC1, the IC50 [13] is reported as 5.56 µM (active) and the IC50 [14] is reported as 6.88 µM (active).

In the case of CCOc1ccc2c(c1)C(C)=CC(C)(C)N2S(=O)(=O)c1ccc(C)cc1, the EC50 [15] is reported as > 160 µM (inactive), the EC50 [1] is reported as > 29.9 µM (not active) and the EC50 [16] is reported as 0.497 µM (active). For the same compound, the EC50 [17] was 0.147 µM (active), the EC50 [18] was > 38 µM (not active) and the EC50 [19] was 1.36 µM (active). For the same compound, the EC50 [2] was > 29.9 µM (not active).

In the case of CCC(=O)[C@]12O[C@@]3(C4C(=O)OCCC41)N(CC)C(C)=C(C(=O)OC)C(c1ccccc1)N3C2=O (some centres not stated), the AC50 [20] is reported as 5.01 µM (inconclusive).

For CCc1n(CC(O)COCC2CC=CCC2)c2ccccc2[n+]1C (configuration not stated), the IC50 [13] was 3.7 µM (active) and the IC50 [14] was 1.93 µM (active).

With Cc1c(NC(=O)c2nc[nH]n2)cccc1-c1nc2ccccc2s1 the IC50 [13] was 2.54 µM (active) and the IC50 [14] was 1.58 µM (active).

In the case of O=S(=O)(Cc1cc(Cl)nc(-c2ccccc2)n1)c1ccccc1, the EC50 [1] is reported as > 29.9 µM (not active) and the EC50 [2] is reported as 5.36 µM (active).

For CCN1C[C@@]2(C)CC[C@@H](OC)[C@@]34C2C(O)[C@@]2(OCO[C@]25CC(OC)C2C[C@@]3(O)C5C2O)C14 (some centres not stated), the AC50 [20] was 39.8 µM (inconclusive).

In the case of COC(C)C(O)(C(=O)OC1=CCN2CC[C@H](O)[C@H]12)C(C)C (some centres not stated), the AC50 [20] is reported as 50.1 µM (inconclusive).

In the case of CCN1C(N(C)CCc2cccs2)=N[C@@H](c2ccccc2)C(C(=O)OC)=C1C, the IC50 [13] is reported as 8.2 µM (active) and the IC50 [14] is reported as 6.31 µM (active).

For COc1ccc(CNc2ncnc3sccc23)cc1OC, the AC50 [21] was 68.3 µM (active), the IC50 [3] was 9.64 µM (active) and the AC50 [22] was 2.34 µM (active). For the same compound, the EC50 [4] was 5.37 µM (active), the IC50 [5] was 17.4 µM (active) and the IC50 [6] was 13 µM (active). The IC50 [7] was > 20 µM (inactive), the IC50 [8] was > 20 µM (inactive) and the IC50 [9] was > 20 µM (inactive). For the same compound, the AC50 [23] was 5.11 µM (active).

For O=c1[nH]n(-c2ccccc2)c(=O)c2ccccc12, the EC50 [10] was > 79.4 µM (not active), the EC50 [11] was > 79.4 µM (not active) and the EC50 [12] was > 79.4 µM (not active).

In the case of CCCCC(CC)Cn1c2nc3ccccc3nc2c2c(=N)oc(C)nc21 (configuration not stated), the EC50 [10] is reported as > 79.4 µM (not active), the EC50 [11] is reported as > 79.4 µM (not active) and the EC50 [12] is reported as 84.3 µM (not active).
